According to PubChem BioAssay (NCI):
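Interpolation was linear, between the two tested concentrations surrounding the appropriate level; five concentrations were tested over 48 hours in 96-well plates. GI50 is the concentration that inhibits growth by half. TGI marks complete inhibition of growth.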 The source made the active and inactive calls. No stated cut-off is given here; in the data, active means GI50 below about 0.43 µM; inactive means the rest.

Test system: MDA-MB-468 breast
Assay: NCI-60 cell line screen, 48 h

| Compound | GI50 [nM] | TGI [nM] | outcome |
| --- | --- | --- | --- |
| CCOC(=O)C(Cc1ccc(N(CCCl)CCCl)cc1)NC(=O)C(CC(C)C)NC(C)=O (stereo unspecified) | 426 | 2180 |  |
| O=C1/C(=C/c2ccc([N+](=O)[O-])s2)Oc2ccc(Cl)cc21 | 440 | 1560 |  |
| COc1ccc(/C(C)=C(\c2ccc(Cl)cc2)c2ccc(OCCN3CCCCC3)cc2)cc1F | 2490 | 5620 |  |
| C=CC(=O)N1CC[C@@H](Oc2nc(Nc3ccc(N4CCC(N5CCN(C)CC5)CC4)cc3)c(C(N)=O)nc2CC)C1 | > 100000 | > 100000 |  |
| COc1ccc(/C=C2\CN(Cc3cn(CCCNc4ccnc5cc(Cl)ccc45)nn3)C/C(=C\c3ccc(OC)cc3)C2=O)cc1 | 11900 | 26200 |  |
| O=C(/C=C\c1ccc(Cl)c(Cl)c1)c1ccccc1 | 14300 | 36900 |  |
| Oc1c(Br)cc(Br)c2cccnc12 | 2430 | 7530 |  |
| C=C1C(=O)O[C@H]2[C@H]1CC/C(Cn1cc(CNC(=O)c3cc4ccccc4[nH]3)nn1)=C\CC[C@@]1(C)O[C@@H]21 | 1450 | 3660 |  |
| N#CC1=C(N)Oc2c(ccc3ccccc23)C1c1ccccc1Cl (stereo unspecified) | 466 | 20700 |  |
| CN1CCN(Cc2ccc(NC(=O)c3cncc(C#Cc4c(N)ncc5ccc(F)cc45)c3)cc2C(F)(F)F)CC1 | 4190 | 12300 |  |
| CCN(CC)CCCC(C)NC(=S)N/N=C(\C)c1ccccn1 (stereo unspecified) | 1890 | 5650 |  |
| C#Cc1cccc(NC(=O)Nc2cccc(NC(=O)CCl)c2)c1 | 19400 | 78700 |  |
| COc1ccc(C2CC(c3cccc(Nc4ccnc5cc(Cl)ccc45)c3)=NN2c2ccc(Cl)cc2)cc1 (stereo unspecified) | 4450 | 40300 |  |
| CCC(CC)N1C(=O)/C(=c2\sc3n(c2=O)C2C(NN=3)N(CC)C(=O)N2CC)c2ccccc21 (stereo unspecified) | 489 | 27000 |  |
| COc1ccc(N2CCN(CC(=O)N3CCN(c4nnc(-c5ccc(Cl)cc5)c(-c5ccc(Cl)cc5)n4)CC3)CC2)cc1 | 11500 | 45500 |  |
| COc1c(C)cnc(Cn2cnc3c(Cl)nc(N)nc32)c1C | 169 | 1530 |  |
| CCS(=O)(=O)Nc1ccc(Oc2ccc(F)cc2F)c(-c2cn(C)c(=O)c3[nH]ccc23)c1 | 51.2 | 5010 |  |
| Cn1c([N+](=O)[O-])cnc1/C=C1\Oc2ccc(Cl)cc2C1=O | 1920 | 4790 |  |
| CCCCc1ccc(C(N)=O)nc1 | > 100000 | > 100000 |  |
| O=C(/C=C/CN1CCCCC1)Nc1cc2c(Nc3ccc(F)c(Cl)c3F)ncnc2cc1OCCOC(F)F | < 10 | 11.8 |  |

| Compound | GI50 [nM] | TGI [nM] | outcome |
| --- | --- | --- | --- |
| CC(CCC/C=C/CCCN(C)C(=N)N)CC(C)C1OC(=O)C(C)C(O)/C=C/C(C)C(O)C(C)C(O)C(C)C(O)CCCC(O)CC2(O)OC(CC(OC(=O)CC(=O)O)CC(O)CC(O)C(C)C(O)/C=C/C=C/C1C)CC(O)C2O (stereo unspecified) | 1770 | 3290 | inactive |
| Cn1cnc2nc(Cl)nc(Cl)c21 | 3680 | 18700 |  |
| CCN(CC)CCC(CNc1c2ccc(Cl)cc2nc2ccc(OC)cc12)c1ccccc1 (stereo unspecified) | 1570 | 3010 |  |
| Cn1cc(C2=C(c3cn(CCCSC(=N)N)c4ccccc34)C(=O)NC2=O)c2ccccc21 | 569 | 1900 |  |
| CC1SC(c2cccc(Oc3ccccc3)c2)N(CCc2cccs2)C1=O (stereo unspecified) | 745 | 2910 |  |
| COC(=O)[C@@H](C)C[C@H](Cc1ccccc1)NC(=O)c1cccc([C@@H](C[C@H](C(C)C)N(C)C(=O)[C@@H](NC(=O)[C@H]2CCCCN2C)C(C)C)OC(C)=O)n1 | < 1.67 | 143 |  |
| Oc1ccc(-c2nc(-c3ccc4oc5ccc(-c6[nH]c(-c7ccc(O)cc7)nc6-c6ccccc6)cc5c4c3)c(-c3ccccc3)[nH]2)cc1 | 6650 | 88500 |  |
| CN(C)CCCn1c2c(c3ccncc3c1=O)C(=O)c1ccccc1-2 | 461 | 3020 |  |
| Cc1cc(F)cc(NS(=O)(=O)c2ccc(-c3cnc(C4CC4)o3)cc2)c1 | 79 | 2420 |  |
| COc1cc(C2C3=C(COC3=O)N(CCO)c3cc4c(cc32)CCC4)cc(OC)c1OC (stereo unspecified) | 61.7 | 151 |  |
| Cc1nn(-c2ccccc2)c2ncc3c(c12)C(=O)N(Cc1ccccc1)C3=O | 9210 | > 100000 |  |
| CNCc1ccc(C)c(NC(=O)c2ccc(Nc3nc(-c4ccccc4)c4ccccc4n3)cc2)c1 | 1610 | 3130 |  |
| Cc1cccc(NC(=O)c2sc3nc4c(cc3c2N)CCC4)c1C | 196 | 685 |  |
| Cc1cc(N2CCOCC2)nc(N(CCNc2ccnc3cc(Cl)ccc23)Cc2cccs2)n1 | 2110 | 5080 |  |
| Cc1nc2cc(NC(=O)CN3CCN(CCN4C(=O)c5cccc6cccc(c56)C4=O)CC3)ccc2s1 | 3630 | 16600 |  |
| CCCCCCn1c(=N)n(CC(O)COc2cccc(C)c2)c2ccccc21 (stereo unspecified) | 1710 | 3540 |  |
| CC(=O)OC1C(OC/C2=C/C3[C@@H](C(C)C)CC=C(C)[C@@H]3CC(OC(=O)/C=C/c3cn(C)cn3)[C@]3(C)C=C[C@@]2(O)O3)OCC(O)C1O (stereo partly specified) | 10.8 | 98.8 |  |
| CCOC(=O)c1ccccc1NC(c1ccccc1)c1ccc2cccnc2c1O (stereo unspecified) | 2450 | 6860 |  |
| COc1ccc(C2CC(c3ccc(OC)c(OC)c3)=NN2C(=O)c2cc(OC)c(OC)c(OC)c2)cc1 (stereo unspecified) | 575 | 5210 |  |
| COc1cc2c(cc1Nc1nc(Nc3ccsc3C(N)=O)c3cc[nH]c3n1)N(C(=O)CN(C)C)CCC2 | 82.7 | 947 |  |
